Like-named read-outs stand apart in the source and are kept apart here.
How the values were obtained:
[1] = test system: Squamous Cell Carcinoma; conditions: propranolol 160 mg daily with curcumin and celebrex, five weeks; reduced to 40 mg daily
[2] = cited from earlier work
[3] = test system: Stage IV Adenocarcinoma of Lung; assay: Treatment of Patient X with Stage IV adenocarcinoma of lung, followed by repeat PET CT; format: in vivo, human
Experimental: Commenced RAS modulation: • Aspirin: 300mg once daily • Start Date: 20 Jun. 2015
2015 • + Cilazapril: 2.5 mg once daily • Start Date: 26 Nov. 2015
2015 • + Doxycycline: 100mg once daily • Start Date: 20 Feb. 2016

[4] = piperine included in the curcumin formulation; cited from earlier work
[5] = test system: several tumoral cell lines; conditions: cited from earlier work

Compound: CC(C)NCC(O)COc1cccc2ccccc12 (racemic) [Propranolol, (RS)-1-(1-methylethylamino)-3-(1-naphthyloxy)propan-2-ol]
- Adverse effects leading to dose reduction [1]: feeling ‘weak in the legs’ and had two episodes of falls
- Uncommon side effects ([2]; Uncommon (0.1-0.9%)): Gastrointestinal disturbance, such as nausea, vomiting, diarrhoea

Compound: CC(=O)Oc1ccccc1C(=O)O [Aspirin, acetylsalicylic acid]
- Repeat PET CT ([3]; 28 Jul. 2015, Aspirin 300mg once daily from 20 Jun. 2015): static appearance with low levels of activity remaining at both the primary and left lung metastasis sites
- Common side effects ([2]; in vivo): Increased bleeding tendencies, dyspepsia
- Rare side effects ([2]; in vivo): Thrombocytopenia, agranulocytosis, aplastic anaemia, hypersensitivity reactions, angio-oedema, allergic oedema, anaphylactic reactions including shock
- Uncommon side effects ([2]; in vivo): Urticaria, rhinitis, dyspnoea

Compound: Cc1ccc(-c2cc(C(F)(F)F)nn2-c2ccc(S(N)(=O)=O)cc2)cc1 [Celecoxib, 4-[5-(4-methylphenyl)-3-(trifluoromethyl)pyrazol-1-yl]benzenesulfonamide]
- Diarrhoea, frequency ([2]; listed as common): 4-10%
- Headache, frequency ([2]; listed as common): 10-15%
- Hypertension, frequency ([2]; listed as common): 2-12%
- Nausea, frequency ([2]; listed as common): 3-7%
- Gastrointestinal haemorrhage, frequency ([2]; listed as serious): less than 0.1%
- Gastrointestinal perforation, frequency ([2]; listed as serious): less than 0.1%
- Thrombosis, frequency ([2]; listed as serious): 1.2%

Compound: CCOC(=O)[C@H](CCc1ccccc1)N[C@H]1CCCN2CCC[C@@H](C(=O)O)N2C1=O [Cilazapril, (4S,7S)-7-[[(2S)-1-Ethoxy-1-oxo-4-phenylbutan-2-yl]amino]-6-oxo-1,2,3,4,7,8,9,10-octahydropyridazino[1,2-a]diazepine-4-carboxylic acid]
- Common side effects ([2]; in vivo): Fatigue, hypotension, dyspepsia, nausea and other gastrointestinal disturbances, headache, rash and coughing
- Rare side effects ([2]; in vivo): Skin rashes including erythema multiforme and toxic epidermal necrolysis may occur. Photosenstivity, alopecia and other hypersensitivity reactions
- Uncommon side effects ([2]; in vivo): Tachycardia, palpitations and chest pain

Compound: CCCCc1nc(Cl)c(CO)n1Cc1ccc(-c2ccccc2-c2nn[nH]n2)cc1 [Losartan]
- Common side effects ([2]; in vivo): Cold or flu symptoms such as stuffy nose, sneezing, sore throat, fever, muscle cramps, pain in the legs or back, stomach pain, diarrhoea, headache, dizziness, tired feeling, sleep problems (insomnia)

Compound: CN(C)C(=N)N=C(N)N [Metformin, N,N-dimethylimidodicarbonimidic diamide]
- Mild gastrointestinal symptoms (diarrhoea, nausea, vomiting, loss of appetite), frequency ([2]; especially during the initial treatment period): > 1/10
- Metallic taste, frequency ([2]; worded 'Common' within the Very Rare paragraph): 3%

Compound: C#Cc1cccc(Nc2ncnc3cc(OCCOC)c(OCCOC)cc23)c1 [Tarceva]
- Repeat PET CT ([3]; 1 Apr. 2015, on Tarceva): new right para-aortic node with high avidity
- Repeat PET CTs ([3]; 12 Jul. 2011 to 5 Nov. 2013, Tarceva 150mg once daily from 2 Jun. 2011): remission of the cancer

Compound: O=C(C=CC=Cc1ccc2c(c1)OCO2)N1CCCCC1 [piperine, 1-[5-(1,3-Benzodioxol-5-yl)-1-oxo-2,4-pentadienyl]piperidine]
- Effect on bioavailability of Curcumin [4]: increases the bioavailability of Curcumin

Compound: [Pt(dmba)(aza-N1)(dmso)] complex 1
- IC50 relative to cisplatin [5]: lower IC50 than cisplatin
